Values joined by “and” are separate entries in the source; they are usually repeats but may differ in a detail not shown here. Equal entries are not always repeated.
Legend:
HRH2 = molecular target: T1, HRH2 (Homo sapiens, UniProt P25021); assay: PRESTO-Tango GPCR screen and dose-response; format: cell-based; settings: for HRH2 dose-response raw reporter signal (Fig. 5b source data): replicate wells
T1 construct: expressed in transfected cells; host or cells: HTLA cells (HEK293 line stably expressing β-arrestin-TEV and tTA-Luciferase)
T1 sequence (P25021 whole entry): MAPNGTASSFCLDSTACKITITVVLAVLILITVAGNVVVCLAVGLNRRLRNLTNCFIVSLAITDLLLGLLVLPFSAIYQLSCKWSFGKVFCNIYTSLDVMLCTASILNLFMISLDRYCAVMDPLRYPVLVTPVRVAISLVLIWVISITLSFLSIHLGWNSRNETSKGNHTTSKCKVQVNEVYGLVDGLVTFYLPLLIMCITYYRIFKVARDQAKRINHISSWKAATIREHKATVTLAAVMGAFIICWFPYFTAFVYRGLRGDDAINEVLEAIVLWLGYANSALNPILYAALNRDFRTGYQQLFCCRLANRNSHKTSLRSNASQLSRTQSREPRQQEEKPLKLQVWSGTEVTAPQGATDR
Procedure: (§1) The PRESTO-Tango analyses were performed as previously published. Briefly, HTLA cells, a HEK293 cell line that stably expresses β-arrestin-TEV and tTA-Luciferase (a kind gift from Gilad Barnea, Brown University), were plated in 96-well tissue culture plates (Eppendorf) in DMEM containing 10% FBS and 1% Penicillin/Streptomycin. One day after plating (after reaching approximately 90% confluence), 200 ng per well GPCR-Tango plasmids[37] in 20 μL DMEM were individually mixed with 400 ng polyethylenimine (Polysciences) in an equal volume of DMEM and incubated for 20 min at room temperature before adding the transfection mixture to the HTLA cells. 16-24 h after transfection, medium was replaced with 180 μL fresh DMEM containing 1% Penicillin/Streptomycin and 10 mM HEPES and 20 μL of 3 or 3-Homo to reach a final concentration of 100 μM. Supernatants were aspirated 20 h after stimulation and 50 μl per well of Bright-Glo solution (Promega) diluted 20-fold with PBS containing 20 mM HEPES was added into each well. After 15 min incubation at room temperature, luminescence was quantified using a Spectramax i3x microplate reader (Molecular Devices). Activation fold for each sample was calculated by dividing relative luminescence units (RLU) for each condition by RLUs from PBS control. Dose response curves of each chemical were performed in a similar way with varying the ligand concentration from 10^−4 M to 10^−15 M.

[1] = molecular target: T2, histamine receptor H4 (HRH4) (Homo sapiens, UniProt Q9H3N8); assay: PRESTO-Tango GPCR screen and dose-response; format: cell-based; settings: for HRH4 dose-response raw reporter signal (Fig. 5b source data): replicate wells
T2 construct: expressed in transfected cells; host or cells: HTLA cells (HEK293 line stably expressing β-arrestin-TEV and tTA-Luciferase)
T2 sequence (Q9H3N8 whole entry): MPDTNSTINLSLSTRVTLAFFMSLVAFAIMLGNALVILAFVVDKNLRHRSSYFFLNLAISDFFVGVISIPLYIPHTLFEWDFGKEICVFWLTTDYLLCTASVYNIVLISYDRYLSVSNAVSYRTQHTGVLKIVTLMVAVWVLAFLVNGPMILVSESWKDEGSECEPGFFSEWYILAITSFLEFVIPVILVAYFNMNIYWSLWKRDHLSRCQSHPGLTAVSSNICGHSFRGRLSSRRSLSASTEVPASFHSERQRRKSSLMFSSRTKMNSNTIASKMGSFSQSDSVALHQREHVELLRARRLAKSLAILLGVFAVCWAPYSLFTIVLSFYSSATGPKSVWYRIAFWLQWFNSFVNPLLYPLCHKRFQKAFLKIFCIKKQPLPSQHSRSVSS
Procedure: as §1

HRH1 = molecular target: T3, HRH1 (Homo sapiens, UniProt P35367); assay: PRESTO-Tango GPCR screen and dose-response; format: cell-based; settings: for HRH1 dose-response raw reporter signal (Fig. 5b source data): replicate wells
T3 construct: expressed in transfected cells; host or cells: HTLA cells (HEK293 line stably expressing β-arrestin-TEV and tTA-Luciferase)
T3 sequence (P35367 whole entry): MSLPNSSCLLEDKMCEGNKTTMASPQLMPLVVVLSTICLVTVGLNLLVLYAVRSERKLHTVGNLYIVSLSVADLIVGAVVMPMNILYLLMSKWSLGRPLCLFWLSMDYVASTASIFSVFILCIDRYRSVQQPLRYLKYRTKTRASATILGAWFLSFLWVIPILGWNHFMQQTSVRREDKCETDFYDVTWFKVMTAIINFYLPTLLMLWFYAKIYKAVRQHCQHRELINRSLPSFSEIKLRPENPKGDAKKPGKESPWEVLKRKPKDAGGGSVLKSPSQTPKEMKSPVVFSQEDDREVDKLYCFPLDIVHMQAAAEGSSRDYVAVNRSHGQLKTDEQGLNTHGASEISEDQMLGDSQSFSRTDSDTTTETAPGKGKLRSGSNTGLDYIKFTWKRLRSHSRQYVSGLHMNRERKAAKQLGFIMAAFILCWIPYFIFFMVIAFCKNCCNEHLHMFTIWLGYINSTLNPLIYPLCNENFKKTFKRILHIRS
Procedure: as §1

HRH3 = molecular target: T4, HRH3 (Homo sapiens, UniProt Q9Y5N1); assay: PRESTO-Tango GPCR screen and dose-response; format: cell-based; settings: for HRH3 dose-response raw reporter signal (Fig. 5b source data): replicate wells
T4 construct: expressed in transfected cells; host or cells: HTLA cells (HEK293 line stably expressing β-arrestin-TEV and tTA-Luciferase)
T4 sequence (Q9Y5N1 whole entry): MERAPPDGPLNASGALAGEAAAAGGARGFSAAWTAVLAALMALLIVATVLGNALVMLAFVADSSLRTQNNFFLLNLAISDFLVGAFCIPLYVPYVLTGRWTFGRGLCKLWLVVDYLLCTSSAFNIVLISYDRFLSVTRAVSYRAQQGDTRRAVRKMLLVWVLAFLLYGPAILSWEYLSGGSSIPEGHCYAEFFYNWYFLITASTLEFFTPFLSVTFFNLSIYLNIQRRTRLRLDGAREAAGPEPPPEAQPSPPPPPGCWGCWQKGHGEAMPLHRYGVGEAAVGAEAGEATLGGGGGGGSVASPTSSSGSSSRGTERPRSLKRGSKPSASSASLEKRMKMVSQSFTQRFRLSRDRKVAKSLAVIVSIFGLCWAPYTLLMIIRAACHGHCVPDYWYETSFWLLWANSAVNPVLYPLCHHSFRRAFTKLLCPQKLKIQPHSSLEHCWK
Procedure: as §1

∆pyr K. oxytoca = assay: RNA-seq of compound-supplemented ∆pyr K. oxytoca; format: cell-based, Klebsiella oxytoca ATCC 8724; settings: 10 µM
Procedure: A ∆pyr K. oxytoca glycerol stock was streaked onto an LB-Agar plate supplemented with spectinomycin (50 µg/mL) and incubated aerobically at 30°C for 24 h in a stationary incubator. Single colonies were grown for 24 h aerobically in 5 mL of M9 minimal medium supplemented with 5 g/L casamino acids and 0.4% D-galactose at 30 °C and 250 rpm. Each ∆pyr K. oxytoca overnight culture was diluted 1:1000 into fresh medium (5 mL) and incubated aerobically at 30 °C and 250 rpm to mid-exponential growth (OD600 = 0.8). These conditions abrogated both detectable pyrazine and pyrazinone production. At this point, 10 µM of compound in DMSO, were added to the cultures; an equal volume of DMSO was added to cultures without compound as a solvent vehicle control. The cultures were incubated under aerobic conditions with the compounds for one hour at 30 °C and at 250 rpm. After incubation, the cultures were centrifuged, the supernatants were decanted, and the cell pellets were quickly resuspended in 5 mL of Bacterial RNAProtect (Qiagen). The samples were centrifuged again, and the pellets were frozen on dry ice and stored at −80 °C until RNA extraction. The processed cell pellets were thawed on ice and resuspended in 200 µL of lysis buffer (10 mM Tris, 1 mM EDTA, 5 mg/mL lysozyme, 12.5 µg/mL proteinase K [pH 8.0]) and incubated at room temperature for 10 min. The RNA was extracted via the Qiagen RNeasy Mini kit, treated with TURBO DNase in a total volume of 100 µL at room temperature for 30 min, and extracted again using an RNeasy Mini kit. RNA-seq analysis was conducted by the Yale Center for Genome Analysis. Sequences were aligned to the K. oxytoca ATCC 8724 genome (NC_016612.1). Differential expression analysis was performed through DESeq2 and pathway enrichment analysis was performed through the Funage-Pro web-based platform.

[2] = test system: wildtype K. oxytoca ATCC 8724; assay: Leupeptin detection in culture extracts by HPLC-QTOF-MS; format: cell-based, Klebsiella oxytoca; settings: added to cultivation medium
Procedure: 5 mL of the leupeptin reporter strain was cultured aerobically in 10 g/L of LB (Becton Dickinson), yeast extract, GAM (HiMedia Laboratories), horse liver extract (HiMedia Laboratories), malt extract (VWR), meat extract (HiMedia Laboratories), YPD (Dot Scienticifc), brain heart infusion (Becton Dickinson), porcine mucin (Sigma-Aldrich, M1778), clostridial (Becton Dickinson), TSB (VWR), or casamino acid supplemented (5 g/L, VWR) M9 minimal salts (MP Biomedicals) at 30 °C for 24 h at 250 rpm. Cultures were lysed via sonication, centrifuged, and 150 µL of the supernatants were aliquoted into black well clear bottom 96 well plates. GFP fluorescence measurements were performed on a BioTek Synergy H1 plate reader with an excitation wavelength of 488 nm and an emission wavelength of 525 nm. For the carbohydrate screen, the leupeptin reporter strain was cultured in M9 minimal medium (MPbio) supplemented with casamino acid (5 g/L, VWR) and 0.4% indicated sugar aerobically at 30 °C for 24 h at 250 rpm.
For MS-based determination of leupeptin activation, wildtype K. oxytoca ATCC 8724 was cultured in 5 mL of M9 minimal medium supplemented with 5 g/L casamino acids and 0.4% Neu5Ac. […] To measure the area under the curves for specific molecular features, the exact monoprotonated [M + H]^+ mass was calculated and extracted ion chromatographs (EICs) with a 10-ppm error were constructed. […]

K. oxytoca = assay: Culture growth (OD600) with sialic acid supplementation; format: cell-based, Klebsiella oxytoca; settings: M9+CAS with sialic acid, peer review file, not added to the study
Procedure: as 2 times the recorded value). Importantly, all cultures in this experiment grew. […]
supplemented cultures. All cultures had reached stationary phase after 24 hours. While Neu5Gc cultures did grow slower than Neu5Ac cultures, the term suppression was incorrect. Therefore, we deleted text around Neu5Gc suppression and have changed line 123 to now read: […]
the SI. The following growth analysis was not added to the study.
2. Fig3 describes the role of PLP-enzyme for the production of pyrazines (features 5-9). From
Fig.3a it is clear that features 5 and 7 are different from 6, 8, and 9. Are there functional differences between these 2 groups of compounds in terms of siderophore production? […]
complementation of the pyr mutant with feature 7 could induce siderophore production (Fig4).
What about the features from the other group (6, 8, and 9)?
To address this comment, we performed RNA-seq analysis feeding compound 6 and looked at regulated genes/operons. Similar to compound 7, compound 6 supplementation increased the […]
a table listing specific genes, is now included in the SI. As such, lines 345-348 now read: […]
compound also differentially regulated the transcriptome (201 genes with Padj < 0.05; abs(log2FC) > 1) and enhanced the transcription of genes related to iron acquisition and iron metabolism (Supplemental Information).”
(also on this page, place not known: value ). PLP -enzyme -9). […]

O=C(O)CCc1nc(Cc2ccc(O)cc2)c(CCC(=O)O)nc1Cc1ccc(O)cc1 [compound 6]
HRH2 dose-response raw reporter signal (Fig. 5b source data) (HRH2; Log(10)Conc (M) -4): 68 and 65 and 32
HRH2 dose-response raw reporter signal (Fig. 5b source data) (HRH2; Log(10)Conc (M) -5): 50 and 41 and 77
HRH2 dose-response raw reporter signal (Fig. 5b source data) (HRH2; Log(10)Conc (M) -6): 59 and 62 and 44
HRH2 dose-response raw reporter signal (Fig. 5b source data) (HRH2; Log(10)Conc (M) -7): 27 and 50 and 35
HRH2 dose-response raw reporter signal (Fig. 5b source data) (HRH2; Log(10)Conc (M) -8): 65 and 80 and 47
HRH2 dose-response raw reporter signal (Fig. 5b source data) (HRH2; Log(10)Conc (M) -9): 38 and 97 and 71
HRH2 dose-response raw reporter signal (Fig. 5b source data) (HRH2; Log(10)Conc (M) -10): 50 (2×) and 62
HRH2 dose-response raw reporter signal (Fig. 5b source data) (HRH2; Log(10)Conc (M) -11): 56 and 27 and 53
HRH2 dose-response raw reporter signal (Fig. 5b source data) (HRH2; Log(10)Conc (M) -12): 53 and 35 and 24
HRH2 dose-response raw reporter signal (Fig. 5b source data) (HRH2; Log(10)Conc (M) -13): 59 and 53 and 35
HRH2 dose-response raw reporter signal (Fig. 5b source data) (HRH2; Log(10)Conc (M) -14): 71 and 53 (2×)
HRH2 dose-response raw reporter signal (Fig. 5b source data) (HRH2; Log(10)Conc (M) -15): 29 and 15 and 32
activity towards HRH2 (HRH2; PRESTO-Tango dose-response): no activity
HRH4 dose-response raw reporter signal (Fig. 5b source data) ([1]; Log(10)Conc (M) -5): 295 and 312
HRH4 dose-response raw reporter signal (Fig. 5b source data) ([1]; Log(10)Conc (M) -6): 348 and 448
HRH4 dose-response raw reporter signal (Fig. 5b source data) ([1]; Log(10)Conc (M) -7): 304 and 348
HRH4 dose-response raw reporter signal (Fig. 5b source data) ([1]; Log(10)Conc (M) -8): 271 and 366
HRH4 dose-response raw reporter signal (Fig. 5b source data) ([1]; Log(10)Conc (M) -9): 318 and 324
HRH4 dose-response raw reporter signal (Fig. 5b source data) ([1]; Log(10)Conc (M) -10): 271 and 230
HRH4 dose-response raw reporter signal (Fig. 5b source data) ([1]; Log(10)Conc (M) -11): 342 and 265
HRH4 dose-response raw reporter signal (Fig. 5b source data) ([1]; Log(10)Conc (M) -12): 298 and 248
HRH4 dose-response raw reporter signal (Fig. 5b source data) ([1]; Log(10)Conc (M) -13): 318 and 271
HRH4 dose-response raw reporter signal (Fig. 5b source data) ([1]; Log(10)Conc (M) -14): 374 and 307
HRH4 dose-response raw reporter signal (Fig. 5b source data) ([1]; Log(10)Conc (M) -15): 242 and 254
activity towards HRH4 ([1]; PRESTO-Tango dose-response): no activity
HRH1 dose-response raw reporter signal (Fig. 5b source data) (HRH1; Log(10)Conc (M) -4): 49886 and 44465
HRH1 dose-response raw reporter signal (Fig. 5b source data) (HRH1; Log(10)Conc (M) -5): 46746 and 44008
HRH1 dose-response raw reporter signal (Fig. 5b source data) (HRH1; Log(10)Conc (M) -6): 46048 and 46004
HRH1 dose-response raw reporter signal (Fig. 5b source data) (HRH1; Log(10)Conc (M) -7): 45284 and 44521
HRH1 dose-response raw reporter signal (Fig. 5b source data) (HRH1; Log(10)Conc (M) -8): 43675 and 43707
HRH1 dose-response raw reporter signal (Fig. 5b source data) (HRH1; Log(10)Conc (M) -9): 43412 and 43896
HRH1 dose-response raw reporter signal (Fig. 5b source data) (HRH1; Log(10)Conc (M) -10): 42790 and 43339
HRH1 dose-response raw reporter signal (Fig. 5b source data) (HRH1; Log(10)Conc (M) -11): 45349 and 45281
HRH1 dose-response raw reporter signal (Fig. 5b source data) (HRH1; Log(10)Conc (M) -12): 45812 and 46139
HRH1 dose-response raw reporter signal (Fig. 5b source data) (HRH1; Log(10)Conc (M) -13): 46567 and 45803
HRH1 dose-response raw reporter signal (Fig. 5b source data) (HRH1; Log(10)Conc (M) -14): 45579 and 46637
HRH1 dose-response raw reporter signal (Fig. 5b source data) (HRH1; Log(10)Conc (M) -15): 40874 and 41360
activity towards HRH1 (HRH1; PRESTO-Tango dose-response): no activity
HRH3 dose-response raw reporter signal (Fig. 5b source data) (HRH3; Log(10)Conc (M) -4): 162 and 59 and 171
HRH3 dose-response raw reporter signal (Fig. 5b source data) (HRH3; Log(10)Conc (M) -5): 94 and 85 and 156
HRH3 dose-response raw reporter signal (Fig. 5b source data) (HRH3; Log(10)Conc (M) -6): 136 and 91 and 133
HRH3 dose-response raw reporter signal (Fig. 5b source data) (HRH3; Log(10)Conc (M) -7): 124 and 91 and 106
HRH3 dose-response raw reporter signal (Fig. 5b source data) (HRH3; Log(10)Conc (M) -8): 133 and 85 and 109
HRH3 dose-response raw reporter signal (Fig. 5b source data) (HRH3; Log(10)Conc (M) -9): 165 and 142 and 209
HRH3 dose-response raw reporter signal (Fig. 5b source data) (HRH3; Log(10)Conc (M) -10): 200 and 100 and 109
HRH3 dose-response raw reporter signal (Fig. 5b source data) (HRH3; Log(10)Conc (M) -11): 133 and 100 and 147
HRH3 dose-response raw reporter signal (Fig. 5b source data) (HRH3; Log(10)Conc (M) -12): 115 (2×) and 142
HRH3 dose-response raw reporter signal (Fig. 5b source data) (HRH3; Log(10)Conc (M) -13): 139 and 91 and 133
HRH3 dose-response raw reporter signal (Fig. 5b source data) (HRH3; Log(10)Conc (M) -14): 127 and 83 and 121
HRH3 dose-response raw reporter signal (Fig. 5b source data) (HRH3; Log(10)Conc (M) -15): 112 and 91 and 62
activity towards HRH3 (HRH3; PRESTO-Tango dose-response): no activity
number of differentially regulated genes (∆pyr K. oxytoca; one hour, vs DMSO, Padj < 0.05, abs(log2FC) > 1): 201 genes
effect on enterobactin BGC transcription (∆pyr K. oxytoca; vs DMSO control, RNA-seq): increased enterobactin transcription levels

O=C(CO)N[C@H]1[C@H]([C@H](O)[C@H](O)CO)OC(O)(C(=O)O)C[C@@H]1O (stereo partly shown) [Neu5Gc, N-glycolneuraminic acid]
induction of leupeptin (1) production [2]: unable to induce the production of 1
culture growth (K. oxytoca): grew about as fast as non-

Reference: article PMC11480411, “Mucosal sugars delineate pyrazine vs pyrazinone autoinducer signaling in Klebsiella oxytoca” (Nature Communications, 2024)
